Reference: patent US20240238300A1, “TREATMENT METHODS FOR SUBJECTS WITH CANCER HAVING AN ABERRATION IN EGFR AND/OR HER2” (TAIHO PHARMACEUTICAL CO., LTD., priority 2021, published 2024)
Like-named read-outs stand apart in the source and are kept apart here.

What was measured:
[1] = test system: MCF10A_HER2/insYVMA cells; test: growth inhibitory effect in human cancer cell lines (GI50); assay type: cell-based; settings: engineered to express HER2 A775_G776insYVMA
[2] = test system: MCF10A_HER2/insYVMA_v human mammary epithelial xenografts; test: antitumor effect in nude mice bearing MCF10A_HER2/insYVMA_v xenografts; assay type: in vivo; settings: for T/C ratio of the mean tumor volume: Day 15
Method: The antitumor effect of Compound (1) was evaluated in a nude mouse xenograft model of MCF10A_HER2/insYVMA_v. MCF10A_HER2/insYVMA_v was established as stably growing cells in vivo derived from MCF10A HER2/insYVMA (a human mammary epithelial cell line engineered to express the HER2 exon 20 insertion mutation A775_G776insYVMA) xenografts subcutaneously transplanted into nude mice. Compound (1) suspensions (using 0.5% w/v HPMC as vehicle) were administered orally once daily to mice at doses of 7.8, 12.5, or 20.0 mg/kg/day for 14 days. The control group received 0.5% weight per volume (w/v) hydroxypropyl methylcellulose (HPMC) solution orally once daily for 14 days.
In addition, the antitumor effect of poziotinib (an irreversible inhibitor of EGFR, HER2, and HER4) was also evaluated using this model.

[3] = brain binding, brain homogenate, equilibrium dialysis; assay type: in vitro ADME, nude mouse
Method: Brain binding of Compound (1) in nude mice. Brain binding of Compound (1) at 0.005, 0.01, 0.05, 0.1, and 0.5 μmol/L using nude mouse brain homogenate was evaluated by equilibrium dialysis method. The brain binding at […] was not calculated due to the limit of quantification by LC-MS/MS, but at 0.05, 0.1, and 0.5 μmol/L was 99.6±0.0%, 99.5±0.0%, and 99.5±0.0%, respectively.

human P-gp = target: T1, human P-gp (Homo sapiens, UniProt P08183); test: inhibitory effect on human P-gp, bidirectional transport of [^3H]digoxin; assay type: in vitro ADME
T1 construct: expressed in transfected cells; host or cells: LLC-PK1 (porcine kidney) cells expressing human P-gp; mock/LLC-PK1 as control
T1 sequence (P08183 whole entry): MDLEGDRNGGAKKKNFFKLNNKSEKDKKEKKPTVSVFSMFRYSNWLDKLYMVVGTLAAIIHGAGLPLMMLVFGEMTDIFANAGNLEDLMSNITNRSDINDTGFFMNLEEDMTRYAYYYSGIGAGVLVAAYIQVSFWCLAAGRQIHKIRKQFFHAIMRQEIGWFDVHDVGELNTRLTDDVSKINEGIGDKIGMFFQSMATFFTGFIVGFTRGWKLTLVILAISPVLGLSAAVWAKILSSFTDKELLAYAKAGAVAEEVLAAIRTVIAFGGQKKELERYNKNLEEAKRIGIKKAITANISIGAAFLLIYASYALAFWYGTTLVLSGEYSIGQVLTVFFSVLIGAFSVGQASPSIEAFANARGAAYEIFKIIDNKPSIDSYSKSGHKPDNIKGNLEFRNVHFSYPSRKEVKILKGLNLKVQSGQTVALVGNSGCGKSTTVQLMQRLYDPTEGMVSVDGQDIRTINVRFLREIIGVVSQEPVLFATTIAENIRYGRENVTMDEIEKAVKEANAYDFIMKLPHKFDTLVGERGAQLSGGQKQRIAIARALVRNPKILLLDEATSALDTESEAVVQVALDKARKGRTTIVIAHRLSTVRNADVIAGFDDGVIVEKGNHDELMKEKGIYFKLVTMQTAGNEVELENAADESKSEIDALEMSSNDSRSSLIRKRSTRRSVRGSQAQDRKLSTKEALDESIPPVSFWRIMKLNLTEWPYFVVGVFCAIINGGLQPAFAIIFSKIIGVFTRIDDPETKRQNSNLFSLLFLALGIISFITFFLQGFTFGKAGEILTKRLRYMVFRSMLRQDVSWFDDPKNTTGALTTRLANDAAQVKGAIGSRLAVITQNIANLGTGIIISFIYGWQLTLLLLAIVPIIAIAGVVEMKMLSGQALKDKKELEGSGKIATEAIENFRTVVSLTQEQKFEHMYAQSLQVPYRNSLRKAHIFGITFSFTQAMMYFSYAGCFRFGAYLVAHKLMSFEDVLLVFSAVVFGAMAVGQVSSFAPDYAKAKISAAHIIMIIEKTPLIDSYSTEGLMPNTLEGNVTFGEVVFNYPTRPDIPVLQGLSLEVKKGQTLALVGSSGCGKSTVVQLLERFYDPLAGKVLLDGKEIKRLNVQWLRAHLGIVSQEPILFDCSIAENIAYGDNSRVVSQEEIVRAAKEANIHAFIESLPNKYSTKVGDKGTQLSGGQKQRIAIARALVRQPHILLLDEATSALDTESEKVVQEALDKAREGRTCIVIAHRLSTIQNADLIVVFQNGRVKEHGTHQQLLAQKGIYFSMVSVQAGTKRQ
Excerpt: Inhibitory effect of Compound (1) on human P-gp. […] The net flux ratios at the Compound (1) concentrations of 0.01, 0.1, 1, 5, 10, and 100 μmol/L were 5.6±1.0, 5.5±0.7, 6.5±0.5, 2.8±0.5, 1.3±0.2, and 1.0±0.1, respectively. The percent of controls at the Compound (1) concentrations at 0.01, 0.1, 1, 5, 10, and 100 μmol/L were 112%, 110%, 135%, 45%, 7%, and 1%, respectively.

BCRP = test system: T2, BCRP; test: substrate susceptibility on human BCRP, bidirectional transcellular transport, BCRP/MDCK II cells; assay type: in vitro ADME; settings: human, with Ko143 10 μmol/L; read-out: net flux ratio
T2 construct: expressed in transfected cells; host or cells: MDCK II (canine kidney) cells expressing human BCRP; parent MDCK II as control
Method: (§1) Substrate susceptibility of Compound (1) on human BCRP. Time-dependence of the bidirectional transcellular transport of 0.3, 0.5, 1, 3, and 30 μmol/L Compound (1) across human BCRP/Madin-Darby canine kidney II (MDCK II) cells and parent/MDCK II cells was analyzed.

human BCRP = test system: T3, human BCRP; test: as above; assay type: in vitro ADME; settings: human
T3 construct: expressed in transfected cells; host or cells: MDCK II (canine kidney) cells expressing human BCRP; parent MDCK II as control
Method: as §1

[4] = test system: NCI-N87 xenografts relapsed from T-mab and P-mab; test: refractory T-mab/P-mab model Step II; assay type: in vivo; settings: for RTV (mean ± SE): Day 15 to Day 1 (Step II); for BWC (mean ± SE): Day 15 vs Day 1 (Step II); for T/C: Step II Day 15, vs T-mab + P-mab group; for Number of Death / TV (mean ± SE): Step II Day 15
Method: Male nude mice (BALB/cAJcl-mu/mu) were implanted with NCI-N87 human gastric carcinoma (HER2 overexpressing); 1.0×10^7 cells in 100 μL of PBS were implanted subcutaneously per mouse.

[5] = test system: NCI-N87 xenografts relapsed from T-DM1; settings: for T/C: Step II Day 22, vs T-DM1 group; for Number of Death / TV (mean ± SE): Step II Day 22
Method: Male nude mice (BALB/cAJ1-mu/mu) were implanted with NCI-N87 human gastric carcinoma (HER2 overexpressing); 1.0×10^7 cells in 100 μL of PBS were implanted subcutaneously per mouse.
PO; or treated with an oral suspension of Compound (1) once per day at a dosage of 25 mg/kg/day, PO. The tumor volumes (TV, mm^3) and body weights of the mice were recorded.

[6] = test system: intracranial NCI-N87-luc human gastric carcinoma xenografts; test: intracranial antitumor effect with various dosing schedules, NCI-N87-luc xenografts; assay type: in vivo, nude mice; settings: Day 22; for T/C ratio of the mean total flux: 21 days
Method: The intracranial antitumor effect of Compound (1) with various dosing schedules ((i) QD, (ii) intermittent, and (iii) 4 days-on/3 days-off) was evaluated using Compound (1) in nude mice intracranially implanted with NCI-N87-luc cells, which were engineered to stably express the luciferase gene using the HER2-overexpressing NCI-N87 human gastric carcinoma cell line.
Compound (1) dosing suspensions using 0.5% weight per volume (w/v) hydroxypropyl methylcellulose (HPMC) as vehicle were prepared with Compound (1) at 2 dose levels (25.0 or 50.0 mg/kg/day) and orally administered with various dosing schedules ((i) QD, (ii) intermittent, and (iii) 4 days-on/3 days-off) for 21 days. The (i) QD dosing schedule in this example was dosing every day on day 1 to day 21. The (ii) intermittent dosing schedule in this example used sequential 7-day periods that each comprise alternating 4 days-on and 3 days-off. That is, this schedule involved dosing on days 1, 3, 5, 7, 8, 10, 12, 14, 15, 17, 19, and 21. The (iii) 4 days-on/3 days-off dosing schedule was dosing on days 1, 2, 3, 4, 8, 9, 10, 11, 15, 16, 17, and 18. The control group received 0.5% w/v HPMC solution orally once daily for 21 days.

[7] = (ii) intermittent 50.0 mg/kg/day
[8] = (iii) 4 days-on/3 days-off 50.0 mg/kg/day

Compound: C=CC(=O)N1C[C@H](n2c(C#CC3CC3)c(C(=O)N[C@H](C)c3ccccc3)c3c(N)ncnc32)C[C@@H]1C [Compound (1), 7-((3R,5S)-1-acryloyl-5-methylpyrrolidin-3-yl)-4-amino-6-(cyclopropylethynyl)-N—((R)-1-phenylethyl)-7H-pyrrolo[2,3-d]pyrimidine-5-carboxamide]
- GI50 [1]: 23.3 ± 1.4 nM
- T/C ratio of the mean tumor volume ([2]; 7.8 mg/kg/day orally once daily 14 days): 52.8%
- T/C ratio of the mean tumor volume ([2]; 12.5 mg/kg/day orally once daily 14 days): 17.4%
- T/C ratio of the mean tumor volume ([2]; 20.0 mg/kg/day orally once daily 14 days): 8.7%
- toxicity (deaths, clinical signs, body weight loss ≥20%) ([2]; 14 days treatment): acceptable toxicity
- brain binding ([3]; 0.05 μmol/L): 99.6±0.0%
- brain binding ([3]; 0.1 μmol/L): 99.5±0.0%
- brain binding ([3]; 0.5 μmol/L): 99.5±0.0%
- IC50 (human P-gp): 3480 nM
- activity at 3 h, 0.01 μmol/L (human P-gp; human): 112%
- activity at 3 h, 0.1 μmol/L (human P-gp; human): 110%
- activity at 3 h, 1 μmol/L (human P-gp; human): 135%
- activity at 3 h, 5 μmol/L (human P-gp; human): 45%
- activity at 3 h, 10 μmol/L (human P-gp; human): 7%
- activity at 3 h, 100 μmol/L (human P-gp; human): 1%
- efflux ratio at 2 h (BCRP): 2 ± 0.5
- efflux ratio at 3 h (BCRP): 1.4 ± 0.2
- efflux ratio at 2 h, 0.5 μmol/L (human BCRP; with Ko143 10 μmol/L, read-out: net flux ratio): 1.2 ± 0.3
- efflux ratio at 4 h, 0.3 μmol/L (human BCRP; with Ko143 (concentration not stated for this arm), read-out: net flux ratio): 1.1 ± 0.2
- efflux ratio at 0.3 μmol/L (human BCRP; 0.3 μmol/L Compound (1), 3 and 4 hours, read-out: flux ratios in parent and human BCRP/MDCK II cells): > 2
- body weight loss (tolerance) ([4]; 12.5 and 25 mg/kg/day): did not cause severe body weight loss
- RTV (mean ± SE) ([4]; 12.5 mg/kg/day po Days 1-14): 1.2
- RTV (mean ± SE) ([4]; 25 mg/kg/day po Days 1-14): 1.0
- BWC (mean ± SE) ([4]; 12.5 mg/kg/day po Days 1-14): −1.2%
- BWC (mean ± SE) ([4]; 25 mg/kg/day po Days 1-14): −4.4%
- T/C ([4]; 12.5 mg/kg/day po Days 1-14): 52.5%
- T/C ([4]; 25 mg/kg/day po Days 1-14): 46.1%
- Number of Death ([4]; 12.5 mg/kg/day po Days 1-14): 0
- TV (mean ± SE) ([4]; 12.5 mg/kg/day po Days 1-14): 412.5 mm^3
- Number of Death ([4]; 25 mg/kg/day po Days 1-14): 0
- TV (mean ± SE) ([4]; 25 mg/kg/day po Days 1-14): 362.4 mm^3
- body weight loss (tolerance) ([5]; 12.5 and 25 mg/kg/day): did not cause severe body weight loss
- T/C ([5]; 12.5 mg/kg/day po Days 1-21): 75.7%
- T/C ([5]; 25 mg/kg/day po Days 1-21): 62.4%
- Number of Death ([5]; 12.5 mg/kg/day po Days 1-21): 0
- TV (mean ± SE) ([5]; 12.5 mg/kg/day po Days 1-21): 435.7 mm^3
- Number of Death ([5]; 25 mg/kg/day po Days 1-21): 0
- TV (mean ± SE) ([5]; 25 mg/kg/day po Days 1-21): 353.7 mm^3
- T/C ratio of the mean total flux [6, 7]: 3.8%
- mean body weight change [6, 7]: −1.0%
- T/C ratio of the mean total flux [6, 8]: 8.9%
- mean body weight change [6, 8]: 0.3%
